The values below are quoted from earlier work in patent US20250122241A1, “CYCLIC PEPTIDE IMMUNOMODULATORS” (BRISTOL-MYERS SQUIBB COMPANY, priority 2021, published 2025).

SMILES strings stand for the structures.

The conditions of this data set: oral administration; extensive first-pass metabolism in the liver.

`CCCC1O[C@@H]2C[C@H]3[C@@H]4CCC5=CC(=O)C=C[C@]5(C)[C@H]4[C@@H](O)C[C@]3(C)[C@]2(C(=O)CO)O1` (stereo partly shown) [budesonide]: the bioavailability result is “about 10%”.
